Publication PMC9856044 (Biomolecules, 2023)

Key:
Tel22 G-quadruplex [1] = experiment: Thermal melting of Tel22 in sodium cacodylate buffer; type: binding, human; conditions: Tel22, r = 1.0, sodium cacodylate buffer, pH = 7.0, I = 0.1 mol dm^−3; error ± 0.5 °C
Procedure: (§1) Thermal melting curves for DNA, RNA and their complexes with studied compounds were determined as previously described by following the absorption change at 260 nm as a function of temperature. The absorbance of the ligands was subtracted from every curve and the absorbance scale was normalized. Tm values are the midpoints of the transition curves determined from the maximum of the first derivative and checked graphically by the tangent method. The ∆Tm values were calculated by subtracting Tm of the free nucleic acid from Tm of the complex. Every ∆Tm value here reported was the average of two measurements. The error in ∆Tm is ±0.5 °C. 5′-AGGG(TTAGGG)3–3′(Tel22) was obtained from IDT (Integrated DNA Technologies, Coralville, IA, USA). Tel22 was dissolved in 0.1 M either in sodium cacodylate or potassium phosphate buffer. The starting Tel22 oligonucleotide solution was first heated up to 95 °C for 10 min, then slowly cooled to 10 °C at the cooling rate of 1 °C/min to allow DNA oligonucleotide to adopt a G-quadruplex structure. The G-quadruplex structure was confirmed by thermal melting and CD spectra. The concentration of G quadruplex was expressed in terms of oligonucleotide structure. In fluorimetric titrations, aliquots of Tel 22 solution were added to the solution of ligands (c ~ 2 × 10^−7 M, in SI).

Tel22 G-quadruplex [2] = experiment: Thermal melting of Tel22 in potassium phosphate buffer; type: binding, human; conditions: Tel22, r = 1.0, potassium phosphate buffer, pH = 7.0, I = 0.1 mol dm^−3; error ±0.5 °C
Procedure: as §1

poly(dGdC)2 (GC-DNA) = experiment: Fluorimetric titration with GC-DNA; type: binding; conditions: for log Ka / Ka (order of magnitude): GC-DNA; for Ka (order of magnitude): sodium cacodylate buffer, pH 7.0, I = 0.05 mol dm^−3, Scatchard equation; for K (fit parameter of titration curve): poly(dGdC)2, pH=7.0, sodium cacodylate buffer, I = 0.05 mol dm-3
Procedure: Materials. Polynucleotides were purchased as noted: poly A–poly U, calf thymus ctDNA, poly(dAdT)2 and poly(dGdC)2 (Sigma-Aldrich, St. Louis, MI, USA). Polynucleotides were dissolved in Na-cacodylate buffer, I = 0.05 mol dm^−3, pH = 7.0. The calf thymus ctDNA was additionally sonicated and filtered through a […]. Polynucleotide concentration was determined spectroscopically as the concentration of phosphates. Spectrophotometric titrations were performed at pH = 7.0 (I = 0.05 mol dm^−3, sodium cacodylate buffer) by adding aliquots of polynucleotide solution into the solution of the studied compound for fluorimetric experiments and CD experiments were done by adding aliquots of the compound stock solution into the solution of a polynucleotide. In fluorimetric experiments, an excitation wavelength of λexc = 425, 431, 423, 427, 406 and 407 nm, respectively, was used to avoid the inner filter effect caused due to increasing absorbance of the polynucleotide. Emission was collected in the range λem = 400–700 nm. Values for Ka obtained by processing titration data using the Scatchard equation [27], all have satisfactory correlation coefficients (≥0.98). Furthermore, linear changes were evident with increasing DNA or RNA concentration in most titrations. The exceptions to this were titrations of cyanine 3 with GC-DNA and titrations of dye 5 with ds-DNA and ds-RNA where sufficient data points in the non-linear part of the curve allowed estimation of binding affinity (Ka values were of the order 10^5 mol^−1 dm^−3; Figures S16, S22 and S23 in SI). Titration data were collected at a high excess of polynucleotide binding sites (r[1–6]/[nucleotide phosphate] < 0.1; see Figures S9–S26 in SI) where each molecule can bind to a separate binding site. Binding affinities of dye-DNA/RNA complexes were calculated by non-linear fitting using the Scatchard equation [27, 33]. The fluorescence changes of dye 5 in the titration with AT-DNA were too small to obtain an accurate binding constant (Figure S21 in SI).

poly(dAdT)2 (AT-DNA) = experiment: Thermal melting of AT-DNA; type: binding; conditions: r [compound]/[nucleotide phosphate] = 0.1
Procedure: as §1
Binding abilities of 1–6 compounds were further explored by thermal melting experiments. […]

MDA-MB-435S cells = experiment: MTT cytotoxicity assay, MDA-MB-435S; type: cell-based; conditions: Homo sapiens, 72 h incubation, ± SD
Procedure: (§2) Human cervical carcinoma HeLa (GIBCO BRL, Invitrogen, Waltham, MA, USA), human melanoma MDA-MB-435S and human ovarian adenocarcinoma SK-OV-3 (ATCC-LGC Standards GmbH, Wesel, Germany) cell lines were purchased from indicated cell culture banks. Normal human skin fibroblasts were isolated from the upper arm of a donor at the Neurochemical Laboratory, Department of Chemistry and Biochemistry, School of Medicine, University of Zagreb. HeLa, MDA-MB-435S and fibroblasts were grown in Dulbecco’s Modified Eagle’s Medium (DMEM; Sigma-Aldrich, St. Louis, MI, USA) while the SK-OV-3 cell line was grown in McCoy’s 5A medium (Capricorn Scientific, Ebsdorfergrund, Germany). All media were supplemented with 10% fetal bovine serum (FBS; Sigma-Aldrich) and 50 I.U./mL penicillin and 50 μg/mL streptomycin. Cells were cultured in a humidified atmosphere of 5% CO2 at 37 °C and were sub-cultured every 3–4 days. HeLa, MDA-MB-435S, SK-OV-3 cells and fibroblasts were seeded in 96 well plates. Twenty-four hours later the cells were treated, in quadruplicate, with different concentrations of compounds (dissolved in DMSO, kept at 4 °C and protected from light). Following 72 h of incubation at 37 °C, the medium was aspired and modified 3-(4,5-dimethylthiazol-2-yl)-2,5-diphenyltetrazolium bromide (MTT) assay was used to determine the cytotoxic effect of the tested compounds. Three hours later, formazan crystals were dissolved in DMSO (0.17 mL/well), the plates were mechanically agitated for 20 min and the optical density at 600 nm was determined on a microtiter plate reader (Awareness Technology Inc., Palm City, FL, USA). The experiments were repeated three times.

SK-OV-3 cells = experiment: MTT cytotoxicity assay, SK-OV-3; type: cell-based; conditions: Homo sapiens, SK-OV-3, 72 h incubation, ± SD
Procedure: as §2

Fibroblasts = experiment: MTT cytotoxicity assay, normal human skin fibroblasts; type: cell-based; conditions: Fibroblast, 72 h incubation, ± SD
Procedure: as §2

Compound | ∆Tm (Tel22 G-quadruplex [1]) | ∆Tm (Tel22 G-quadruplex [2]) | log Ka (poly(dGdC)2 (GC-DNA)) | Ka (order of magnitude) (poly(dGdC)2 (GC-DNA)) | K (fit parameter of titration curve) (poly(dGdC)2 (GC-DNA)) | ∆Tm value (poly(dAdT)2 (AT-DNA)) | IC50 (MDA-MB-435S cells) | IC50 (SK-OV-3 cells) | IC50 (Fibroblasts)
C[n+]1c(/C=C2\Sc3ccccc3N2CCCS)[se]c2ccccc21 [Compound 5, 2-((3-(3-mercaptopropyl)benzo[d]thiazol-2(3H)-ylidene)methyl)-3-methylbenzo[d][1,3]selenazol-3-ium methosulphate] | 2.1 °C | 5.1 °C | 5 | ~10^5 mol^−1 dm^−3 | 282880.22043 ±15074133.56759 | 4 °C | 37100 ± 3020 nM | 29600 ± 5720 nM | > 40000 nM
CN1/C(=C/c2[se]c3ccccc3[n+]2C)Sc2ccccc21 [Compound 3, 3-methyl-2-((3-methylbenzo[d]thiazol-2(3H)-ylidene)methyl)benzo[d][1,3]selenazol-3-ium methosulphate] | 0.5 °C | 0.5 °C | 5 | ~10^5 mol^−1 dm^−3 | 183746.7242 ±8918685.57223 | – | 987 ± 177 nM | 548 ± 102 nM | 2380 ± 161 nM
